Values quoted from earlier work as cited in patent US9950967B2, “Titanium-containing formulation and method of preparation of titanium-containing formulation” (INTERMAG Sp. z.o.o., priority 2013, dated 2018).

Test system: plants
Settings: I. Pais, J. Plant Nutr. 6:3-133, 1983

titanium
increases the yield: 10-20%
